SMILES strings stand for the structures.

Assay [1] has as its target Hepatocyte growth factor-like protein (Homo sapiens) (UniProt P26927). Nature of the assay: Selectivity interaction (Ambit KINOMEscan and KiNATiv profiling in Jurkat cells) EUB0000090b MST1. Format: cell-based. As to conditions: at 1 µM.
Assay [2] addresses T1, Tyrosine-protein kinase Tec (Homo sapiens) (UniProt P42680).
T1 sequence (whole entry): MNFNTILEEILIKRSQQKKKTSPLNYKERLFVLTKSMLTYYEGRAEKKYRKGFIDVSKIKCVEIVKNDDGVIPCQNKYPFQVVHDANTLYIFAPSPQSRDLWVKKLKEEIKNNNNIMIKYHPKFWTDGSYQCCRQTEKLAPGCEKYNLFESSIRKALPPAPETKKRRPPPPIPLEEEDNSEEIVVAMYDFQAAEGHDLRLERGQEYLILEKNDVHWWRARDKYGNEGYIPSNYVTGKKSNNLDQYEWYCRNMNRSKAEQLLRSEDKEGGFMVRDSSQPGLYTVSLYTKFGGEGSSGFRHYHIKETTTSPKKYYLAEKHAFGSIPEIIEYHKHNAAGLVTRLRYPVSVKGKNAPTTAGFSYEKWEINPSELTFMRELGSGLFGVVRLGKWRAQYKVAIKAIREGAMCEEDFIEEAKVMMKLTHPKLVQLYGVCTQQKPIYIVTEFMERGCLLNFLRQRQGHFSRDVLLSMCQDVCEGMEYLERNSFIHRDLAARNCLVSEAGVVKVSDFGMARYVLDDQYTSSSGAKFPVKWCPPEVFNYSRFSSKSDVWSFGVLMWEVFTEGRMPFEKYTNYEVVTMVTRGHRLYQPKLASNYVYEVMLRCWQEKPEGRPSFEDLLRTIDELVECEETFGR
The assay is described as follows: Selectivity interaction (KinomeScan (DiscoverX)) EUB0000092b TEC. As to conditions: at 10 µM.

Assay [3] has as its target Proto-oncogene tyrosine-protein kinase Src (Homo sapiens, UniProt P12931). Nature of the assay: Selectivity interaction (Kinase panel (Z-LYTE Assay)) EUB0001632a SRC. The following applies: at 10 µM.
For assay [4], the target named is T1, Tyrosine-protein kinase Tec (Homo sapiens). Nature of the assay: Selectivity interaction (KinomeScan (DiscoverX)) EUB0000607a TEC. As to conditions: at 10 µM.
Assay [5] has as its target T2, MAP/microtubule affinity-regulating kinase 4 (Homo sapiens) (UniProt Q96L34).
T2 sequence (whole entry): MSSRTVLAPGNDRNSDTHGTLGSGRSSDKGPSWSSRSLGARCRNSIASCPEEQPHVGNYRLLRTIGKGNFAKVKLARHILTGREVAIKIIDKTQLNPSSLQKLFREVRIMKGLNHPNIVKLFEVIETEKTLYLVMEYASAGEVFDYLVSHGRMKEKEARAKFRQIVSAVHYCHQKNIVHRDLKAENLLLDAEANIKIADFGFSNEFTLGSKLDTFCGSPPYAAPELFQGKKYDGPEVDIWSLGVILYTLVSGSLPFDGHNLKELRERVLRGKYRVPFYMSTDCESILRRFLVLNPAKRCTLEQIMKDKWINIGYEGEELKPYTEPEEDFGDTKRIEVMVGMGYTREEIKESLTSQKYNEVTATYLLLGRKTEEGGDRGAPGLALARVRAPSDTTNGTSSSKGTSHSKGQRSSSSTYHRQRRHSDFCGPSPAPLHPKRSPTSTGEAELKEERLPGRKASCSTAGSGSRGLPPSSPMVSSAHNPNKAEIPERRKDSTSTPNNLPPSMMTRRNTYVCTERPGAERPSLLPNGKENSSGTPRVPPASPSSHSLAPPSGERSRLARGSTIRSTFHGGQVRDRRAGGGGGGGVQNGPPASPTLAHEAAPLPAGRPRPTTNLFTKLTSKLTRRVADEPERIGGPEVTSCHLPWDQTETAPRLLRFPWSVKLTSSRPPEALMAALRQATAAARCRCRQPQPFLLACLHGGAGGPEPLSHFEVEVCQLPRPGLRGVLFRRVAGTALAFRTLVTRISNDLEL
The assay is described as follows: Selectivity interaction (ActivX KiNativ screen (kinase selectivity in THP-1 cell lysates)) EUB0000639a MARK4. Type of assay: subcellular. The following applies: lysate, at 1 µM.

The target in assay [6] is T3, Serine/threonine-protein kinase TAO3 (Homo sapiens) (UniProt Q9H2K8).
T3 sequence (whole entry): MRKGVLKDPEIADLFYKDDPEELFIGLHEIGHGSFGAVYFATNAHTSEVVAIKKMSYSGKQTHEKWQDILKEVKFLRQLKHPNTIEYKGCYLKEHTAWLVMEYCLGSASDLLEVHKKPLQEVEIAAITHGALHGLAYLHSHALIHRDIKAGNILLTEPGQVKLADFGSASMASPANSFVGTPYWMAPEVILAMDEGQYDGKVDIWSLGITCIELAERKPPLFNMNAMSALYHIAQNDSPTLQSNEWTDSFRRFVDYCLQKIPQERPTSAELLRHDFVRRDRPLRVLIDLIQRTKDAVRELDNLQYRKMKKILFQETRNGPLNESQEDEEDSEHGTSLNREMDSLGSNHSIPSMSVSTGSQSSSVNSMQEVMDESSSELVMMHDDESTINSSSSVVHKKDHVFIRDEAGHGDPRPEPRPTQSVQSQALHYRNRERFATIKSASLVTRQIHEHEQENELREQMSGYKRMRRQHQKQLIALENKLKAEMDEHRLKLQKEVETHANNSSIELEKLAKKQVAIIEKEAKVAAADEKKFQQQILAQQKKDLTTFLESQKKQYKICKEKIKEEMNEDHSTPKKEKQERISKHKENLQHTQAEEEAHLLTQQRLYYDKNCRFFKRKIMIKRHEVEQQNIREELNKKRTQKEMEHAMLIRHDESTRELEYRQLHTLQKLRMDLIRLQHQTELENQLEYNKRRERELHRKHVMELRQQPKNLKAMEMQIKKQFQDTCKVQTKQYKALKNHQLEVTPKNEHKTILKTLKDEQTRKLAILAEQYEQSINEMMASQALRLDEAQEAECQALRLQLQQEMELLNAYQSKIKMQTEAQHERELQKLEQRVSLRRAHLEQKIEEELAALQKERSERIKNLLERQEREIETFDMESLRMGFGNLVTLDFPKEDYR
The assay is described as follows: Selectivity interaction (KinomeScan (DiscoverX)) EUB0001619a TAOK3. As to conditions: at 1 µM.

Sequence of Proto-oncogene tyrosine-protein kinase Src (P12931 2-536 limits assumed): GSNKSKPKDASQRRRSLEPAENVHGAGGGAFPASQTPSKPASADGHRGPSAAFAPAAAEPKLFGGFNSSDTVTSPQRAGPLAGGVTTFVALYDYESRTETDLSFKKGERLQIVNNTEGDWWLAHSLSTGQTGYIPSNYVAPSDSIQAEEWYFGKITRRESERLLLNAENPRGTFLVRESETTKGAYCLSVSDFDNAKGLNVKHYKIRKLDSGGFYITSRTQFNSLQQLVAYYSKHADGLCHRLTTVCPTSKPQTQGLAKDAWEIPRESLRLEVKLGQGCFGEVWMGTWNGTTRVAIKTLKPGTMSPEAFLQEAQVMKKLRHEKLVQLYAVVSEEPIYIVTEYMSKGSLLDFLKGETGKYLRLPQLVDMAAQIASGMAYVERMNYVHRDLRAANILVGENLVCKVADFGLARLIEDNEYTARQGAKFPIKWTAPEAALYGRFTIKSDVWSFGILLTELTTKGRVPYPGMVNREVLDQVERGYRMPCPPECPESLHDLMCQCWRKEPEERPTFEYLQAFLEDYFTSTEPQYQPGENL

For the molecule `CN(C)C/C=C/C(=O)Nc1ccc(C(=O)N2CCCC(Nc3ncc(Cl)c(-c4c[nH]c5ccccc45)n3)C2)cc1` (stereo unspecified), the % of control in assay [1] came out at 78%.
Molecule `CCC(=O)N1CCN(c2ccc(-n3c(=O)ccc4cnc5ccc(-c6cnc7ccccc7c6)cc5c43)cc2C(F)(F)F)CC1` came in with a % of control in assay [2] of 99%.
`Cn1cc(-n2cnc3c(NCc4nc5cc(Cl)c(Cl)cc5[nH]4)nc(N4CCOCC4)nc32)cn1`: in assay [3], the % of control was 12.1%.
For the molecule `CNC(=O)Nc1ccc(-c2nc(N3CC4CCC(C3)O4)c3cnn(C4CCC5(CC4)OCCO5)c3n2)cc1`, the % of control in assay [4] is 84%.
Regarding `CC[C@@H]1[C@H](F)C(=O)N[C@@H]1COc1nccc2cc(C(N)=O)c(OC)cc12` [ZIMLOVISERTIB], the % of inhibition in assay [5] stood at 17.1%.
As for `N#Cc1cccc(-c2c[nH]c3ncnc(N4CCOCC4)c23)c1`, the % of control in assay [6] came out at 36%.

(Values after ChEMBL document CHEMBL5465560, “Selectivity Literature for EUbOPEN Chemogenomic Library” (2024).)
